Laboratory results taken from ChEMBL document CHEMBL1159136, “Dipeptide mimetics can substitute for the receptor activation domain resulting in highly potent analogues of hPTH(136)” (Bioorg Med Chem Lett, 1996).

Experiments:
[1] = test system: OK-1; experiment: Displacement of [125I]-chick PTHrP-(1-36)-NH2 from opossum (OK-1) kidney cells; assay type: functional
[2] = test system: SAOS-2; experiment: Compound was evaluated for the accumulation of cyclic AMP in SaOS-2 (human osteosarcoma) cells.; assay type: functional, cell-based; details: Homo sapiens, SAOS-2
[3] = test system: OK-1; experiment: Compound was evaluated for the intrinsic activity for accumulation of cyclic AMP in OK-1 cells.; assay type: functional, opossum
[4] = test system: OK-1; experiment: Compound was evaluated for the accumulation of cyclic AMP in OK-1 cells.; assay type: functional, cell-based, opossum
[5] = test system: UMR106-06; experiment: Compound was evaluated for the intrinsic activity for accumulation of cyclic AMP in UMR10606 (rat osteosarcoma) cells.; assay type: functional
[6] = test system: SAOS-2; experiment: Compound was evaluated for the intrinsic activity for accumulation of cyclic AMP in SaOS-2 (human osteosarcoma) cells.; assay type: functional
[7] = test system: UMR106-06; experiment: Compound was evaluated for the accumulation of cyclic AMP in UMR10606 (rat osteosarcoma) cells.; assay type: functional, cell-based; details: Rattus norvegicus, UMR106-06

Compound: CC[C@H](C)[C@H](NC(=O)[C@H](CCC(=O)O)NC(=O)[C@H](CO)NC(=O)[C@@H](NC(=O)[C@@H](N)CO)C(C)C)C(=O)N[C@@H](CCC(N)=O)C(=O)N[C@@H](CC(C)C)C(=O)N[C@@H](CCSC)C(=O)N[C@@H](Cc1c[nH]cn1)C(=O)N[C@@H](CC(N)=O)C(=O)N[C@@H](CC(C)C)C(=O)NCC(=O)N[C@@H](CCCCN)C(=O)N[C@@H](Cc1c[nH]cn1)C(=O)N[C@@H](CC(C)C)C(=O)N[C@@H](CC(N)=O)C(=O)N[C@@H](CO)C(=O)N[C@@H](CCSC)C(=O)N[C@@H](CCC(=O)O)C(=O)N[C@@H](CCCN=C(N)N)C(=O)N[C@H](C(=O)N[C@@H](CCC(=O)O)C(=O)N[C@@H](Cc1c[nH]c2ccccc12)C(=O)N[C@@H](CC(C)C)C(=O)N[C@@H](CCCN=C(N)N)C(=O)N[C@@H](CCCCN)C(=O)N[C@@H](CCCCN)C(=O)N[C@@H](CC(C)C)C(=O)N[C@@H](CCC(N)=O)C(=O)N[C@@H](CC(=O)O)C(=O)N[C@H](C(=O)N[C@@H](Cc1c[nH]cn1)C(=O)N[C@@H](CC(N)=O)C(=O)N[C@@H](Cc1ccccc1)C(=O)N[C@H](C(=O)N[C@@H](C)C(N)=O)C(C)C)C(C)C)C(C)C
- pKD [1]: 8.6
- EC50 [2]: 2.3 nM
- Intrinsic activity [3]: 1
- EC50 [4]: 4.2 nM
- Intrinsic activity [5]: 0.98
- Intrinsic activity [6]: 0.96
- EC50 [7]: 3.3 nM
